Results on 11 compounds are retold here after ChEMBL document CHEMBL1146805, “Carbonic anhydrase inhibitors. Inhibition of cytosolic isozyme XIII with aromatic and heterocyclic sulfonamides: a novel target for the drug design” (Bioorg Med Chem Lett, 2004).

This assay deals with Carbonic anhydrase 13 (Mus musculus, UniProt Q9D6N1).
Carbonic anhydrase 13, sequence (Q9D6N1 whole entry): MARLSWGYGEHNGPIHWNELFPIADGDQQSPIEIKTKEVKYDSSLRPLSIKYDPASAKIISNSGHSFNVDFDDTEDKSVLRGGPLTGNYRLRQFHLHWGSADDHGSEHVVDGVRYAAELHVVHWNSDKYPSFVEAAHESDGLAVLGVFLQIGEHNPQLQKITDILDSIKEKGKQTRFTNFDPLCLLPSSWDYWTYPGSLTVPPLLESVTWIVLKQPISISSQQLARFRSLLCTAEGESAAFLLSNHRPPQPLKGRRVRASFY
Description: Inhibitory activity against murine carbonic anhydrase XIII (mCA XIII) by using CO2 hydrase assay method
What is called Ki is the dissociation constant of the complex between target and ligand, obtained from inhibition or displacement. Regarding `Nc1ccc(S(=O)(=O)NCc2ccc(S(N)(=O)=O)cc2)cc1`, affinity was put at a Ki of 1.9 nM.

As to `Nc1ccc(S(N)(=O)=O)cc1I`, the affinity, expressed as Ki, was 50 nM.

In turn, `Nc1ccc(S(=O)(=O)Nc2ccc(S(N)(=O)=O)cc2)cc1` came in with an inhibition constant Ki of 2.4 nM.

With `Nc1ccccc1S(N)(=O)=O`, the inhibitory constant (Ki) is 43 nM.

In turn, `Nc1ccc(S(N)(=O)=O)cc1Br` gave a Ki of 54 nM.

`Nc1ccc(S(N)(=O)=O)cc1F` returned an inhibition constant Ki of 50 nM.

Compound `NCCc1ccc(S(N)(=O)=O)cc1` registered an inhibition constant Ki of 43 nM.

Take `Nc1ccc(S(N)(=O)=O)cc1Cl`: the inhibitory constant (Ki) is 56 nM.

In turn, `Nc1ccc(S(=O)(=O)NCCc2ccc(S(N)(=O)=O)cc2)cc1` came in with a Ki of 1.3 nM.

Consider `NCc1ccc(S(N)(=O)=O)cc1` [MAFENIDE], for which the inhibitory constant (Ki) was 41 nM.

`Nc1ccc(S(N)(=O)=O)cc1` [SULFANILAMIDE] had a Ki of 32 nM.
